These results are taken from article PMC8430952 (International Journal of Molecular Sciences, 2021).

In assay [1] the target is T1, ATAD2 bromodomain (BRD), residues 981–1108 (Homo sapiens, UniProt Q6PL18).
T1 construct: Residues 981–1108 encoding the 128 amino acid ATAD2 BRD were PCR amplified; GST (with PreScission Protease site) (N, cleaved yes); made in house; host or cells: E. coli Rosetta 2(DE3) pLysS (non-codon-optimized) or BL21(DE3) pLysS (codon-optimized)
T1 sequence (Q6PL18 981-1108): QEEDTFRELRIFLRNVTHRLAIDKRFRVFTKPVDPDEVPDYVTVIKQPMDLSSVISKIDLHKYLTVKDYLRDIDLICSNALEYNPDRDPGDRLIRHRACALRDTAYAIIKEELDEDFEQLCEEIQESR
Nature of the assay: ITC of histone peptides with the wild-type ATAD2 bromodomain. Conditions: for N-Value (stoichiometry of binding, peptide-to-bromodomain ratio) / ATAD2 BRD KD: ITC, 5 °C; for N-Value (stoichiometry of binding, peptide-to-bromodomain ratio): ATAD2 BRD (residues 981–1108, wild type), one set of sites model; for Kd: SD; for ATAD2 BRD KD: 150 mM NaH2PO4 and 150 mM NaCl, 5 mM peptide titrated into 0.2 mM ATAD2 BRD (residues 981–1108, wild type), 1:1 binding model, mean ± SD of three runs, no binding repeated in duplicate. The class given is binding. Here is the method: (§1) Purified protein was concentrated to a volume of 3 mL and dialyzed into ITC buffer (150 mM NaH2PO4 and 150 mM NaCl) for 48 h. ITC experiments with histone peptides were carried out at 5 °C using a MicroCal iTC200 (Malvern Panalytical, Westborough, MA, USA). […] The stirring speed was set at 750 RPM. After excluding the first injection, the ITC binding isotherms were integrated using a Marquandt nonlinear least-squares analysis according to a 1:1 binding model assuming a single set of identical binding sites with the Origin 7.0 program (OrginLab Corporation, Northampton, MA, USA). The raw data were corrected for non-specific heats of dilution determined by the magnitude of the peaks appearing after the system reaches complete saturation. The obtained heats of dilution were analyzed according to a one set of sites binding model and used to calculate binding affinities, N values, and thermodynamic values. […] The mean Kd was calculated from the average of the three runs, and the standard deviation was calculated from the mean.

Another assay has as its target T2, ATAD2 BRD mutant I1074Y (Homo sapiens, UniProt Q6PL18, I1074Y).
T2 construct: ATAD2 (residues 981–1108) with a N1064A/I1074A/I1074Y mutation; GST (with PreScission Protease site) (N, cleaved yes); made in house; host or cells: E. coli
T2 sequence (Q6PL18 981-1108 I1074Y): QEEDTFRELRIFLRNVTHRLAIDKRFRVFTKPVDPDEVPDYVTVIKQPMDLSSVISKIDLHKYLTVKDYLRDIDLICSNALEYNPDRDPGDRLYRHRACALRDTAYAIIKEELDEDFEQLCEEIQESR
The experiment in a line: ITC of histone peptides with the ATAD2 bromodomain mutant I1074Y. Conditions: ATAD2 (residues 981–1108) I1074Y mutant bromodomain. Format: binding. Here is the method: as §1

For assay [2], the target named is T3, ATAD2 bromodomain (residues 966–1112, C1101A) (Homo sapiens, UniProt Q6PL18, C1101A).
T3 construct: GST (with PreScission protease cleavage site) (N, cleaved yes); made in house; host or cells: E. coli BL21(DE3) pLysS
T3 sequence (Q6PL18 966-1112 C1101A): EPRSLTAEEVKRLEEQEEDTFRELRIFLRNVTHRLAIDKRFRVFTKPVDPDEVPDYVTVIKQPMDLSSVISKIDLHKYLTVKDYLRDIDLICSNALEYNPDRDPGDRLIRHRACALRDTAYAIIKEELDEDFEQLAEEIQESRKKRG
The experiment in a line: ITC of histone H4 peptides with the longer ATAD2 bromodomain construct. Format: binding. Conditions: for N-Value (stoichiometry of binding): ITC, 5 °C, ATAD2 bromodomain residues 966–1112, C1101A; for Kd: SD, read-out: KD from ITC. Here is the method: as §1

The target of the next assay is T4, ATAD2 BRD mutant I1074A (Homo sapiens, UniProt Q6PL18, I1074A).
T4 construct: ATAD2 (residues 981–1108) with a N1064A/I1074A/I1074Y mutation; GST (with PreScission Protease site) (N, cleaved yes); made in house; host or cells: E. coli
T4 sequence (Q6PL18 981-1108 I1074A): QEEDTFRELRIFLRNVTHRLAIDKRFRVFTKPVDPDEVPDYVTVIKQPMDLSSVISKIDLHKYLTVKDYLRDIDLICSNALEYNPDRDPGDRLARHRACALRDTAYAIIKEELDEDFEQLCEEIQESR
Nature of the assay: ITC of histone peptides with the ATAD2 bromodomain mutant I1074A. The class given is binding. Conditions: ATAD2 (residues 981–1108) I1074A mutant bromodomain. Here is the method:
as §1

Another assay has as its target T5, ATAD2 BRD mutant N1064A (Homo sapiens, UniProt Q6PL18, N1064A).
T5 construct: ATAD2 (residues 981–1108) with a N1064A/I1074A/I1074Y mutation; GST (with PreScission Protease site) (N, cleaved yes); made in house; host or cells: E. coli
T5 sequence (Q6PL18 981-1108 N1064A): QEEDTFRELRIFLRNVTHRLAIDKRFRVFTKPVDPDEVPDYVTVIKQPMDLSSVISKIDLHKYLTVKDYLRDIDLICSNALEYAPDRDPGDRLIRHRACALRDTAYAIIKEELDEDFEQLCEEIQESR
The experiment in a line: ITC of histone peptides with the ATAD2 bromodomain mutant N1064A. The class given is binding. Conditions: ATAD2 (residues 981–1108) N1064A mutant bromodomain. Here is the method: as §1

Assay [3] deals with histone H4K8ac (Homo sapiens) (UniProt P62805). Nature of the assay: ITC. The following applies: cited from earlier work.
Assay [4] addresses histone H4K5ac (Homo sapiens) (UniProt P62805). The experiment in a line: ITC. The following applies: cited from earlier work.
For another assay, the target named is T6, histone H4K5acK8ac 1-10 (Homo sapiens, UniProt P62805).
T6 chain: MSGRGK(Ac)GGK(Ac)G
The experiment in a line: ITC. Background: In ITC the heat of successive injections is recorded.

Another assay addresses T7, histone H4K12ac 4-17 (Homo sapiens, UniProt P62805).
T7 chain: RGKGGKGLGK(Ac)GGAK
The experiment in a line: ITC.

No end group written: not given here.

One may read the Kd as the constant that tells how readily two partners part at equilibrium. For SGRGKGGK(Ac)GL-NH2 [H4K8ac (res 1–10)], in assay [1], the “N-Value (stoichiometry of binding, peptide-to-bromodomain ratio)” value was determined as 1.144 and the Kd was 1130 ± 122 µM.

On to “LGK(Ac)GGAK(Ac)RHRK-NH2 [H4K12acK16ac (res 10–20)]”, for which, in assay [1], the “N-Value (stoichiometry of binding, peptide-to-bromodomain ratio)” value amounted to 1.082 and the affinity, expressed as Kd, was 303 ± 18.7 µM.

With “SGRGK(Ac)GGK(Ac)GL-NH2 [H4K5acK8ac (res 1–10)]”, the KD result on ATAD2 BRD mutant I1074Y, on ATAD2 BRD mutant I1074A and on ATAD2 BRD mutant N1064A was “No binding” each time. The “N-Value (stoichiometry of binding)” value in assay [2] stood at 0.974. Moreover, the equilibrium dissociation constant (Kd) is 15.9 ± 2.5 µM in [2] and 33.2 ± 5.9 µM in [1]. For the same molecule, the “N-Value (stoichiometry of binding, peptide-to-bromodomain ratio)” value in assay [1] is listed as 0.938.

Take “RKSTGGKacAPRKQ [H3K14ac (res 8–19), histone H3 tail peptide, residues 8–19, acetylated at K14]”: the “ATAD2 BRD KD” value in [1] is “No Binding”; in [1] (listed as H3K14ac), “did not observe any binding”.

As for “LGKGGAKacRHRK [H4K16ac (res 10–20), histone H4 tail peptide, residues 10–20, acetylated at K16]”, the “ATAD2 BRD KD” value in assay [1] is “No Binding”.

On to “GKGGKacGLGKGGAKR [H4K8ac (res 4–17), histone H4 tail peptide, residues 4–17, acetylated at K8]”, for which the “ATAD2 BRD KD” value in assay [1] was “No Binding”; in [1] (listed as H5K8ac (4–17)) it was “complete lack of binding”.

Turning to “ARTKQTARKacSTG [H3K9ac (res 1–12), histone H3 tail peptide, residues 1–12, acetylated at K9]”, in assay [1], the “ATAD2 BRD KD” value is recorded as “No Binding”.

Regarding “GKacGGKGLGKGGAKR [H4K5ac (res 4–17), histone H4 tail peptide, residues 4–17, acetylated at K5]”, the “ATAD2 BRD KD” value is “No Binding” in assay [1] and “complete lack of binding” in [1] (listed as H4K5ac (4–17)).

On to “RKSTGGKAPRKacQ [H3K18ac (res 8–19), histone H3 tail peptide, residues 8–19, acetylated at K18]”, for which the “ATAD2 BRD KD” value in [1] was “No Binding”.

With ATAD2 bromodomain (from UniProt Q6PL18), the Kd in assay [3] is 1130 µM; in assay [4], 44.5 µM.

With “GKGGKGLGKGGAKR [H4 unmodified (res 4–17), unmodified histone H4 tail peptide, residues 4–17; free N-terminus, amidated C-terminus]”, the “ATAD2 BRD KD” value in [1] is given as “No Binding”.

Turning to `CC(=O)NCCCC[C@H](NC(=O)CNC(=O)CN)C(=O)NCC(=O)N[C@@H](CC(C)C)C(=O)NCC(=O)N[C@@H](CCCCNC(C)=O)C(=O)NCC(=O)NCC(=O)N[C@@H](C)C(N)=O` [H4K8acK12ac (res 6–15)], in assay [1], the “N-Value (stoichiometry of binding, peptide-to-bromodomain ratio)” value is reported as 1.169 and binding was put at a Kd of 392 ± 19.5 µM.

As to “SGRGK(Ac)QGGKARA-NH2 [H2AK5ac (res 1–12)]”, in assay [1], the “N-Value (stoichiometry of binding, peptide-to-bromodomain ratio)” value came to 0.997 and binding was characterised by a dissociation constant (Kd) of 38.9 ± 5.9 µM.

Consider “ARTKQTARKSTG [H3 unmodified (res 1–12), unmodified histone H3 tail peptide, residues 1–12]”, for which the “ATAD2 BRD KD” value in assay [1] was “No Binding”.

As to SGRGK(Ac)GGKGL-NH2 [H4K5ac (res 1–10)], in assay [2], the “N-Value (stoichiometry of binding)” value was determined as 1.021 and the Kd amounted to 10.1 ± 1.3 µM. In addition, in assay [1], the “N-Value (stoichiometry of binding, peptide-to-bromodomain ratio)” value was determined as 1.070 and the affinity, expressed as Kd, was 44.5 ± 3.3 µM.

On to `CC(=O)NCCCC[C@H](NC(=O)CNC(=O)[C@H](CC(C)C)NC(=O)CNC(=O)[C@H](CCCCN)NC(=O)CNC(=O)CNC(=O)[C@H](CCCCN)NC(=O)CN)C(=O)NCC(=O)NCC(=O)N[C@@H](C)C(=O)N[C@@H](CCCCN)C(=O)N[C@@H](CCCNC(=N)N)C(N)=O` [H4K12ac (res 4–17)], for which the KD entry on ATAD2 BRD mutant I1074Y, at ATAD2 BRD mutant I1074A and on ATAD2 BRD mutant N1064A was “No binding” throughout. Moreover, in [1], the “N-Value (stoichiometry of binding, peptide-to-bromodomain ratio)” value is reported as 1.170. The molecule also came in with a Kd in assay [1] of 95.1 ± 13.1 µM.

B1: ATAD2 bromodomain (protein)
chain: RLEEQEEDTFRELRIFLRNVTHRLAIDKRFRVFTKPVDPDEVPDYVTVIKQPMDLSSVISKIDLHKYLTVKDYLRDIDLICSNALEYNPDRDPGDRLIRHRACALRDTAYAIIKEELDE
Turning to B1, the Kd was 33.2 µM with histone H4K5acK8ac 1-10 and 95.1 µM in the assay with histone H4K12ac 4-17.
